According to patent US20150352111A1, “Therapeutic Indications of Kinase Inhibitors” (Pulmokine, Inc., priority 2013, published 2015):
“And” between values parts separate entries of the source, which are not always exact repeats. Equal entries are not always repeated.

Legend:
[1] = target: T1, PDGFR alpha receptor (Homo sapiens, UniProt P16234); experiment: Z-lyte in vitro kinase assay (Invitrogen Select Screen); assay type: biochemical; conditions: ATP Km
T1 construct: purchased Invitrogen (Select Screen service)
T1 sequence (P16234 24-1089): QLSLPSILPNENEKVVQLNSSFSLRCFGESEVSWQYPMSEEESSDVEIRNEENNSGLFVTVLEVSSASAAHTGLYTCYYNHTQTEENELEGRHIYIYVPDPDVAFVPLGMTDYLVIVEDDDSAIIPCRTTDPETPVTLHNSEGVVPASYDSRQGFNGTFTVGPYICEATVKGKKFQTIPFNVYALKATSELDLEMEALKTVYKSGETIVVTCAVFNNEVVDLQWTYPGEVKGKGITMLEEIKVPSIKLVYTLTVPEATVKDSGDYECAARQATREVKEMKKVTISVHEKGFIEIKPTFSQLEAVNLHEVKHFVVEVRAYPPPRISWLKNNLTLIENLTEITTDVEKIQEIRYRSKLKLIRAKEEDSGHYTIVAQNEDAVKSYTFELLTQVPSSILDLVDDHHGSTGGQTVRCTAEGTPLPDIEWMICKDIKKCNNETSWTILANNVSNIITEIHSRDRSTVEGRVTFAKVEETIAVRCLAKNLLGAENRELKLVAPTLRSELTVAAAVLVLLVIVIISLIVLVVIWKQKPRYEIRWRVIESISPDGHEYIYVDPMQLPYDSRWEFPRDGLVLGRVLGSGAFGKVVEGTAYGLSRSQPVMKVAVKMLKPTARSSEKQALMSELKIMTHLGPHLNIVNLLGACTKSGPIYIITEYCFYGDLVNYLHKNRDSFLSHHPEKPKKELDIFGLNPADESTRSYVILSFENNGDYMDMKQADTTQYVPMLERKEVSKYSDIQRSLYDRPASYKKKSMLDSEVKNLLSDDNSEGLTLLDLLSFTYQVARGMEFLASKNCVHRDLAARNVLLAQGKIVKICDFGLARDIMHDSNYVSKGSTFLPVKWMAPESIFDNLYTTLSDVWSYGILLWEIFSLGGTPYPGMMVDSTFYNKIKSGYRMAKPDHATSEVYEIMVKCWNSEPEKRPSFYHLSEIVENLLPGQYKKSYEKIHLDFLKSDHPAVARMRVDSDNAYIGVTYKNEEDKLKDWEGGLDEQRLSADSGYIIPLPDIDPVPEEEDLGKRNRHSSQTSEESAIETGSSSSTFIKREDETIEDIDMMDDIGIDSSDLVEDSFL
Description: Ten point titration curves were modeled to calculate the IC50 (Invitrogen Select Screen®).

[2] = Pharmacokinetic study, IV vs inhalation, lung and plasma; assay type: in vivo, rat; conditions: for AUC: rat
Description: PK10453 was administered intravenously or by inhalation to animals, which were then euthanized at time 0, 10, 20, and 60 minutes (n=3 each time point). Blood samples were taken by cardiac puncture, and the lungs excised. The lungs were homogenized and PK10453 extracted with a 1:3 mixture of acetonitrile:methanol. Similarly, plasma was extracted with a 1:3 mixture of acetonitrile:methanol. Drug was assayed by LC MS/MS (PharmOptima Inc., Portage Mich.). First order exponential curves were fit to the data with Excel. The AUC was determined with the trapezoidal method of integration.
For the pharmacokinetic study, the concentration of PK10453 in lung when administered by inhalation was compared to the concentration achieved with IV administration. As described in Morén “Aerosols in medicine: principles, diagnosis, and therapy.” Amsterdam; New York: Elsevier. xx, 429 (1993) and Phalen et al., “Inhalation exposure methodology.” Environ Health Perspect 56:23-34 (1984)), it is possible to estimate the pharmacokinetic advantage of inhalation relative to intravenous administration, Rd, by comparing the areas under the curve (AUC) of a plot of the drug concentration as a function of time following respiratory and intravenous (IV) administration:
Rd=[(AUClung/AUCplasma)respiratory]/[(AUClung/AUCplasma)IV]

[3] = Fluorescent imaging of lung distribution of inhaled drug with IR780 tracer; assay type: in vivo, rat; conditions: inhalation with IR780 tracer, 2 min exposure
Description: The spatial distribution of inhaled PK10453 in the lung was evaluated by fluorescent imaging. For this study, a near IR fluorescent tracer, IR-780, was added to the drug solution in the nebulizer. In this way, the dried aerosol particles contained both the drug and IR tracer. After a two minute exposure, animals were placed under general anesthesia underwent intubation via tracheostomy, and the lungs were excised. OCT/PBS was infused via the pulmonary artery, the lung insufflated with air, and the lungs frozen in the vapor phase of liquid nitrogen. Serial approximate 2 mm sections of the lung were made and imaged on a Licor Odyssey Imager.

[4] = Body weight, MCT+PN model (FIG. 11); assay type: in vivo, rat; conditions: treated vs. vehicle groups
Text: FIG. 11 is a graphic representation of subject body weight in vehicle administered and PK10453 treated subjects, where squares indicate vehicle treated (n=10), triangles indicate PK10453 D4 group (n=10), and diamonds indicate PK10453 D8 group (n=6).

[5] = system: rat MCT+PN model of PAH; experiment: Telemetry study of PA pressure in the rat MCT+PN model; assay type: in vivo
Description: Efficacy Study in the Rat MCT+PN Model.
Pneumonectomy and implantation of a TRM53P telemetry monitor in the pulmonary artery (Telemetry Research, New Zealand and ADInstruments, Colorado) was carried out in rats. Two weeks after MCT, PK10453 was administered three times daily for 1 week. Dosing was begun 2 weeks after MCT rather than 3 weeks, because in this more aggressive model the animals developed PAH more quickly and developed distress sooner than in MCT only treated animals (Pulmokine unpublished data). The two groups underwent 4 minute exposures of either the vehicle control or PK10453. Sampling of PA pressure was performed 5 minutes before each morning dose in ambulatory animals in room air (est. pressure 716 mm Hg based on elev. of animal facility).

## COc1cc(-c2cncc(N[C@@H](C)c3cccc(NC(=O)c4cncc(C)c4)c3)n2)ccc1O [PK10453, (S)—N-(3-(1-((6-(4-hydroxy-3-methoxyphenyl)pyrazin-2yl)amino)ethyl)phenyl)-5-methylnicotinamide]
[1]
  IC50: 21 nM
[2]; Lung (INH)
  A of Y = AEXP(-bX): 2498 ng/g lung
  b of Y = AEXP(-bX): 0.03 min⁻¹
[2]; Lung (IV)
  A of Y = AEXP(-bX): 440 ng/g lung
  b of Y = AEXP(-bX): 0.06 min⁻¹
[2]; Plasma (INH)
  A of Y = AEXP(-bX): 132.7 ng/g lung
  b of Y = AEXP(-bX): 0.07 min⁻¹
[2]; Plasma (IV)
  A of Y = AEXP(-bX): 1260 ng/g lung
  b of Y = AEXP(-bX): 0.07 min⁻¹
  AUC: 617 ng·h/mL
[2]; [(AUClung/AUCplasma)respiratory]/[(AUClung/AUCplasma)IV]
  Rd, pharmacokinetic advantage of inhalation relative to IV: 44.6 fold and 45 fold and 44.58 fold
[2]; inhaled, Plasma (INH)
  AUC: 65.5 ng·h/mL
[3]
  fluorescence intensity distribution in lung sections: well distributed throughout the lungs
[4]
  body weight: trend to a slower rate of decline
[5]; 4 min exposure 3x/day, after five days of treatment
  PA systolic pressure: 47.3±3.0 mm Hg
[5]; 4 min exposure 3x/day, treatment day 8
  PA systolic pressure: 47.3±4.9 mm Hg
[5]; day 0 prior to start of treatment
  PA systolic pressure: 43.1±3.5 mm Hg
